Data set [1] concerns glutathione peroxidase. Put plainly: Serum glutathione peroxidase (gSH-Px) activity in selenium-deficient pigs (Table 1). It is filed as in vivo. How it is done: (§1) The new type of preparation containing sodium selenite and ferric dextran was administered intramuscularly to three pigs, weight 15 . . . 25 kg, suffering from selenium deficiency. Another three pigs suffering from selenium deficiency were given the same dose of sodium selenite. Serum selenium content and glutathione peroxidase enzyme activity were determined as a measure of the bioactivity of selenium in the organism. […] All the pigs were on the same diet throughout the test period.
(§2) Animals 1, 2 and 3 received 0.06 mg Se per kg body weight intramuscularly
(§3) Animals 4, 5 and 6 received 0.06 mg Se per kg body weight intramuscularly
(§4) as sodium selenite combined with ferric dextran, 200 mg Fe per dose.

For data set [2] the following is noted: in words; background statement; cited from earlier work.
Data set [3] is described as follows: Serum selenium content in selenium-deficient pigs (Table 1). The class given is in vivo. The note with it: 0.06 mg Se/kg i.m. How it is done:
as §1, §2, §3, §4

Data set [4] is described as follows: Serum selenium level in newborn piglets (Table 2). The class given is in vivo. The method, then:
(§5) Six newborn piglets weighing about 1 kg were given an intramuscular dose of 2 ml of the new iron-selenium preparation, each ml containing 100 mg Fe^+3 as ferric dextran and 0.15 mg Se^+4 as sodium selenite. […] This was in spite of the fact that the animals were fed on milk from a sow kept on a low-selenium diet during this period. Five similar piglets, given the same diet, formed the control group. The control animals were given 200 mg Fe^+3 ferric dextran intramuscularly at the same time as injection of the test group. Four weeks later, mean selenium levels of 55.4 ng/ml and a mean glutathione perioxidase activity of 710.8 IU/l were found in their serum. The differences between the mean values of the test group and the control group were statistically significant, the glutathione peroxidase difference at the 99% confidence interval and the Se difference at the 95% interval (Wilcoxson-Mann-Whitney rank sum test).
(§6) 0.3 mg/Se/kg together with 200 mg Fe^+3

In another data set the test system is erythrocyte count. Put plainly: Increase in erythrocyte count in piglets, electronic counter. The class given is in vivo. The note with it: eight days after injection of 200 mg Fe^+3 as ferric dextran, with or without Se^+4 0.15 mg/ml (2 ml, s.c. in test group); difference significant at 95% confidence interval. How it is done:
(§7) In another study, two sows were kept on a low-selenium diet during the last four weeks of pregnancy and during lactation. The 25 piglets born alive were divided at the age of three days into two groups (12+13), both groups containing piglets from both sows. Blood samples were taken from all piglets for determination of selenium and glutathione peroxidase values and for blood cell counts. The test group (13 piglets) were given a subcutaneous injection of 200 mg (2 ml) Fe^+3 as ferric dextran, to which sodium selenite had been added to give a Se^+4 content of 0.15 mg/ml. The control group (12) received 200 mg Fe^+3 as ferric dextran without Se^+4. One piglet in the control group later died. After eight days, blood samples were taken from all piglets. […] The difference was statistically significant at the 95% confidence interval using the non-parametric Wilcoxson-Mann-Whitney rank sum test. […] This is an important finding that will play a major role in both human and veterinary medicine. The use of selenium in combination with iron is likely to increase considerably. […] Selenium is probably stored as an iron-selenium complex, which explains the unexpected sufficiency of a single dose given at an early stage up to a weight of about 8 . . . 10 kg.

Data set [5] concerns glutathione peroxidase. Kind of data set: Serum glutathione peroxidase activity in newborn piglets (Table 2). It is filed as in vivo. The method, then: as §5, §6
Data set [6] can be described thus: Serum selenium maintenance / selenium sufficiency in piglets injected at three days. The class given is in vivo. The note with it: in words; 200 mg Fe^+3 per animal; 3 weeks. How it is done: as §7
Data set [7] can be described thus: Growth (weight increase) of piglets injected at three days. It is filed as in vivo. The note with it: in words; 200 mg Fe^+3 per animal; 3 weeks. The method, then: as §7
Setting [8] is: in words, four weeks after treatment.
[9] abbreviates: mean of five control piglets, serum, four weeks later, 200 mg Fe^+3 ferric dextran i.m.

Here are results for 2 compounds from patent publication US4476114A, “Iron-selenium preparation” (Orion-yhtyma Oy, priority 1982, dated 1984).

“And” between values parts separate entries of the source, which are not always exact repeats. Identical values can stand only once.

Turning to `O=[Se]([O-])[O-].[Na+].[Na+]` [sodium selenite], the “gSH-Px, 0-sample” value in the data set on glutathione peroxidase [1] (individual pigs, 0-sample (before dosing), 0.06 mg Se/kg i.m., with ferric dextran 200 mg Fe per dose for animals 4-6) is 373 IU/l and 298 IU/l and 325 IU/l. The “gSH-Px at day 8” value in the data set with glutathione peroxidase [1] (individual pigs, day 8, 0.06 mg Se/kg i.m., with ferric dextran 200 mg Fe per dose for animals 4-6) is 1065 IU/l and 796 IU/l and 926 IU/l. In addition, the “gSH-Px at day 15” value in the data set on glutathione peroxidase [1] (individual pigs, day 15, 0.06 mg Se/kg i.m., with ferric dextran 200 mg Fe per dose for animals 4-6) was 632 IU/l and 437 IU/l and 484 IU/l. Also, in the data set with glutathione peroxidase [1] (mean of 3 pigs, 0-sample (before dosing), 0.06 mg Se/kg i.m.), the “Mean gSH-Px, 0-sample” value was determined as 332 IU/l. For the same compound, the “Mean gSH-Px at day 8” value in the data set on glutathione peroxidase [1] (mean of 3 pigs, day 8, 0.06 mg Se/kg i.m.) came to 926 IU/l. Also, the “Mean gSH-Px at day 15” value in the data set on glutathione peroxidase [1] (mean of 3 pigs, day 15, 0.06 mg Se/kg i.m.) is 518 IU/l. Further, in data set [2], the “elimination of selenium from the organism” value is “rapidly eliminated” and the “half-life of selenium in the organism” value is reported as “short”. Moreover, the “serum selenium level over 15 days” value in data set [3] (in words) is reported as “remained elevated for only 8 days”. In data set [3] (mean of 3 pigs, serum, 0-sample (before dosing)), the “Mean Se, 0-sample” value is 23 ng/mL. Besides, the “Mean Se at day 8” value in data set [3] (mean of 3 pigs, serum, day 8, 11520 min) was 49 ng/mL. Besides, the “Mean Se at day 15” value in data set [3] (mean of 3 pigs, serum, day 15, 21600 min) is 35 ng/mL.
Take ferric dextran: the “serum level of selenium four weeks later” value in data set [4] (setting [8]) is reported as “indicate a deficiency state”. The “mean selenium level, control group” value in data set [4] (setting [9]) worked out at 55.4 ng/mL. Further, the “mean increase in the erythrocyte count” value with erythrocyte count is recorded as 1.41±0.30 10^12 /l. In addition, the “serum level of glutathione peroxidase four weeks later” value in the data set on glutathione peroxidase [5] (setting [8]) is “indicate a deficiency state”. Further, the “mean glutathione peroxidase activity, control group” value in the data set on glutathione peroxidase [5] (setting [9]) stood at 710.8 IU/l. For the same compound, the “selenium status of control animals” value in data set [6] was “severe selenium deficiency”. Also, the “weight increase of control animals” value in data set [7] was “retardation in weight increase”.
